# Source: PMC11277489, “Novel Piperazine Derivatives of Vindoline as Anticancer Agents” (International Journal of Molecular Sciences, 2024)
# Columns and labels:
# [1] = tested on: NCI-H226; test: NCI60 one-dose screen (10 μM), Non-small Cell Lung Cancer; type: cell-based; settings: Homo sapiens; 10 μM; NCI-H226, Non-small Cell Lung Cancer; read-out: Growth percent rate
# [2] = tested on: MALME-3M; test: NCI60 five-dose screen, Melanoma; type: cell-based; settings: Homo sapiens; MALME-3M, Melanoma; five-dose screen; read-out: GI50
# [3] = tested on: HOP-92; test: NCI60 five-dose screen, Non-small Cell Lung Cancer; type: cell-based; settings: Homo sapiens; HOP-92, Non-small Cell Lung Cancer; five-dose screen; read-out: GI50
# [4] = tested on: HT29; test: NCI60 five-dose screen, Colon Cancer; type: cell-based; settings: Homo sapiens, HT-29; HT29, Colon Cancer; five-dose screen; read-out: GI50
# [5] = tested on: MDA-MB-231/ATCC; test: NCI60 one-dose screen (10 μM), Breast Cancer; type: cell-based, human
# [6] = tested on: CAKI-1; test: NCI60 five-dose screen, Renal Cancer; type: cell-based; settings: Homo sapiens; CAKI-1, Renal Cancer; five-dose screen; read-out: GI50
# [7] = tested on: U251; test: NCI60 five-dose screen, CNS Cancer; type: cell-based; settings: Homo sapiens, U-251; U251, CNS Cancer; five-dose screen; read-out: GI50
# [8] = tested on: T-47D; test: NCI60 five-dose screen, Breast Cancer; type: cell-based; settings: Homo sapiens, T47D; T-47D, Breast Cancer; five-dose screen; read-out: GI50
# [9] = tested on: HCT-15; test: NCI60 five-dose screen, Colon Cancer; type: cell-based; settings: Homo sapiens; HCT-15, Colon Cancer; five-dose screen; read-out: GI50
# [10] = tested on: NCI-H226; test: NCI60 five-dose screen, Non-small Cell Lung Cancer; type: cell-based; settings: Homo sapiens; NCI-H226, Non-small Cell Lung Cancer; five-dose screen; read-out: GI50
# [11] = tested on: SK-MEL-5; test: NCI60 five-dose screen, Melanoma; type: cell-based; settings: Homo sapiens; SK-MEL-5, Melanoma; five-dose screen; read-out: GI50
# [12] = tested on: SR; test: NCI60 one-dose screen (10 μM), Leukemia; type: cell-based; settings: Homo sapiens, 10 μM, Leukemia, read-out: Growth percent rate
# [13] = tested on: SK-OV-3; test: NCI60 one-dose screen (10 μM), Ovarian Cancer; type: cell-based; settings: Homo sapiens; 10 μM; SK-OV-3, Ovarian Cancer; read-out: Growth percent rate
# [14] = tested on: OVCAR-5; test: NCI60 one-dose screen (10 μM), Ovarian Cancer; type: cell-based; settings: Homo sapiens; 10 μM; OVCAR-5, Ovarian Cancer; read-out: Growth percent rate
# [15] = tested on: HL-60(TB); test: NCI60 five-dose screen, Leukemia; type: cell-based; settings: Homo sapiens; HL-60(TB), Leukemia; five-dose screen; read-out: GI50
# [16] = tested on: IGROV1; test: NCI60 five-dose screen, Ovarian Cancer; type: cell-based; settings: Homo sapiens, IGROV-1; IGROV1, Ovarian Cancer; five-dose screen; read-out: GI50
# [17] = tested on: NCI-H460; test: NCI60 five-dose screen, Non-small Cell Lung Cancer; type: cell-based; settings: Homo sapiens; NCI-H460, Non-small Cell Lung Cancer; five-dose screen; read-out: GI50
# [18] = tested on: NCI-H522; test: NCI60 five-dose screen, Non-small Cell Lung Cancer; type: cell-based; settings: Homo sapiens; NCI-H522, Non-small Cell Lung Cancer; five-dose screen; read-out: GI50
# [19] = tested on: TK-10; test: NCI60 five-dose screen, Renal Cancer; type: cell-based; settings: Homo sapiens; TK-10, Renal Cancer; five-dose screen; read-out: GI50
# [20] = tested on: MDA-MB-468; test: NCI60 one-dose screen (10 μM), Breast Cancer; type: cell-based; settings: Homo sapiens; 10 μM; MDA-MB-468, Breast Cancer; read-out: Growth percent rate
# [21] = tested on: SF-268; test: NCI60 one-dose screen (10 μM), CNS Cancer; type: cell-based; settings: Homo sapiens; 10 μM; SF-268, CNS Cancer; read-out: Growth percent rate
# [22] = tested on: T-47D; test: NCI60 one-dose screen (10 μM), Breast Cancer; type: cell-based; settings: Homo sapiens, T47D; 10 μM; T-47D, Breast Cancer; read-out: Growth percent rate
# [23] = tested on: UACC-257; test: NCI60 five-dose screen, Melanoma; type: cell-based; settings: Homo sapiens; UACC-257, Melanoma; five-dose screen; read-out: GI50
# [24] = tested on: BT-549; test: NCI60 one-dose screen (10 μM), Breast Cancer; type: cell-based; settings: Homo sapiens; 10 μM; BT-549, Breast Cancer; read-out: Growth percent rate
# [25] = tested on: UACC-62; test: NCI60 one-dose screen (10 μM), Melanoma; type: cell-based; settings: Homo sapiens; 10 μM; UACC-62, Melanoma; read-out: Growth percent rate
# [26] = tested on: LOX IMVI; test: NCI60 five-dose screen, Melanoma; type: cell-based; settings: Homo sapiens, Melanoma, five-dose screen, read-out: GI50
# [27] = tested on: NCI/ADR-RES; test: NCI60 one-dose screen (10 μM), Ovarian Cancer; type: cell-based; settings: Homo sapiens, 10 μM, Ovarian Cancer, read-out: Growth percent rate
# [28] = tested on: NCI-H23; test: NCI60 five-dose screen, Non-small Cell Lung Cancer; type: cell-based; settings: Homo sapiens; NCI-H23, Non-small Cell Lung Cancer; five-dose screen; read-out: GI50
# [29] = tested on: UO-31; test: NCI60 one-dose screen (10 μM), Renal Cancer; type: cell-based; settings: Homo sapiens; 10 μM; UO-31, Renal Cancer; read-out: Growth percent rate
# [30] = tested on: OVCAR-4; test: NCI60 five-dose screen, Ovarian Cancer; type: cell-based; settings: Homo sapiens; OVCAR-4, Ovarian Cancer; five-dose screen; read-out: GI50
# [31] = tested on: SF-268; test: NCI60 five-dose screen, CNS Cancer; type: cell-based; settings: Homo sapiens; SF-268, CNS Cancer; five-dose screen; read-out: GI50
# [32] = tested on: NCI/ADR-RES; test: NCI60 five-dose screen, Ovarian Cancer; type: cell-based; settings: Homo sapiens, Ovarian Cancer, five-dose screen, read-out: GI50
# [33] = tested on: RXF 393; test: NCI60 one-dose screen (10 μM), Renal Cancer; type: cell-based, human; settings: Homo sapiens; 10 μM; RXF 393, Renal Cancer; read-out: Growth percent rate
# [34] = tested on: OVCAR-8; test: NCI60 five-dose screen, Ovarian Cancer; type: cell-based; settings: Homo sapiens; OVCAR-8, Ovarian Cancer; five-dose screen; read-out: GI50
# [35] = tested on: 60 human tumor cell lines (NCI60); test: NCI60 one-dose screen (10 μM), whole panel; type: cell-based
# [36] = tested on: SNB-75; test: NCI60 five-dose screen, CNS Cancer; type: cell-based; settings: Homo sapiens; SNB-75, CNS Cancer; five-dose screen; read-out: GI50
# [37] = tested on: K-562; test: NCI60 five-dose screen, Leukemia; type: cell-based; settings: Homo sapiens, K562; K-562, Leukemia; five-dose screen; read-out: GI50
# [38] = tested on: LOX IMVI; test: NCI60 one-dose screen (10 μM), Melanoma; type: cell-based, human
# [39] = tested on: HCC-2998; test: NCI60 five-dose screen, Colon Cancer; type: cell-based; settings: Homo sapiens; HCC-2998, Colon Cancer; five-dose screen; read-out: GI50
# [40] = tested on: EKVX; test: NCI60 five-dose screen, Non-small Cell Lung Cancer; type: cell-based; settings: Homo sapiens, Non-small Cell Lung Cancer, five-dose screen, read-out: GI50
# [41] = tested on: OVCAR-4; test: NCI60 one-dose screen (10 μM), Ovarian Cancer; type: cell-based; settings: Homo sapiens; 10 μM; OVCAR-4, Ovarian Cancer; read-out: Growth percent rate
# [42] = tested on: MDA-MB-435; test: NCI60 five-dose screen, Melanoma; type: cell-based; settings: Homo sapiens; MDA-MB-435, Melanoma; five-dose screen; read-out: GI50
# [43] = tested on: DU-145; test: NCI60 one-dose screen (10 μM), Prostate Cancer; type: cell-based; settings: Homo sapiens; 10 μM; DU-145, Prostate Cancer; read-out: Growth percent rate
smiles,measurement,setting,value
CCC12C=CCN3CCC4(c5cc(NC(=O)CN6CCN(c7ccc(C(F)(F)F)cc7)CC6)c(OC)cc5N(C)C4C(O)(C(=O)OC)C1OC(C)=O)C32 (stereo not shown) [Compound 17],activity at 10 µM,[1],-61.9%
same,GI50,[2],14.8 µM
same,GI50,[3],2.57 µM
same,GI50,[4],2.09 µM
same,growth percent rate,"[5]; 10 μM one-dose, MDA-MB-231/ATCC breast cancer, negative = lethality",−86.10%
same,activity at 10 µM,"[5]; Homo sapiens, 10 μM, MDA-MB-231/ATCC, Breast Cancer, read-out: Growth percent rate",-86.2%
same,GI50,[6],2.63 µM
same,GI50,[7],6.03 µM
same,GI50,[8],2.19 µM
same,GI50,[9],3.89 µM
same,GI50,[10],6.46 µM
same,GI50,[11],2.4 µM
same,activity at 10 µM,[12],-11.4%
same,activity at 10 µM,[13],6.93%
same,activity at 10 µM,[14],-41.6%
same,GI50,[15],2.14 µM
same,GI50,[16],10 µM
same,GI50,[17],6.46 µM
same,GI50,[18],10.5 µM
same,GI50,[19],4.57 µM
same,activity at 10 µM,[20],-62.5%
same,activity at 10 µM,[21],-6.14%
same,activity at 10 µM,[22],9.79%
same,GI50,[23],5.5 µM
same,activity at 10 µM,[24],-50.4%
same,activity at 10 µM,[25],-54.8%
same,GI50,[26],4.27 µM
same,activity at 10 µM,[27],0.4%
same,GI50,[28],10.7 µM
same,activity at 10 µM,[29],0.08%
same,GI50,[30],3.89 µM
same,GI50,[31],3.02 µM
same,GI50,[32],6.03 µM
same,activity at 10 µM,[33],-36.5%
same,GI50,[34],8.51 µM
same,antiproliferative effect (in words),"[35]; 10 μM one-dose, NCI60",highly effective in several types of cancer
same,activity at 10 µM,"[35]; 10 μM, mean over 60 human cancer cell lines, read-out: Growth percent rate, Mean",-24.7%
same,GI50,[36],1.45 µM
same,GI50,[37],3.02 µM
same,growth percent rate,"[38]; 10 μM one-dose, LOX-IMVI melanoma, negative = lethality",−95.37%
same,activity at 10 µM,"[38]; Homo sapiens, 10 μM, LOX IMVI, Melanoma, read-out: Growth percent rate",-95.4%
same,GI50,[39],7.76 µM
same,GI50,[40],6.03 µM
same,activity at 10 µM,[41],20.4%
same,GI50,[42],1.95 µM
same,activity at 10 µM,[43],24.1%
